Assay results taken from publication PMC11589483, “Preparation and anti-colon cancer effect of a novel curcumin analogue (CA8): in vivo and in vitro evaluation” (Frontiers in Pharmacology, 2024).
Read-outs that look alike come from different tables or passages of the source.

Assays:
[1] = test system: normal human liver cell line LO2; assay: MTT assay, normal liver cells LO2; type: cell-based
Procedure: (§1) The human cancer cell lines A549, HepG2, MCF-7, Caco-2, and HeLa and the normal human liver cell line LO2 were all obtained from Shanghai Cell Bank of China. All cells were cultured in RPMI 1640 or DMEM supplemented with 10% fetal bovine serum, 100 U/mL penicillin, and 100 μg/mL streptomycin and incubated at 37°C under 5% CO2 (HEPA incubator class100 Thermo company). The medium was replaced three times a week. Cells used in all were in the exponential growth phase.
(§2) The cell inhibition rate was evaluated using the MTT assay. Briefly, cells were seeded in a 96-well plate at a density of 3–4 × 10^3 cells per well and incubated at 37°C for 24 h. The MCACs to be tested were dissolved in dimethyl sulfoxide (DMSO, Merck, Germany) and diluted to five concentrations (3.75, 7.5, 15, 30, 60 μM/L) with RPMI 1640 medium, with each dose analyzed in quadruplicate. The concentration of DMSO was always maintained below 1‰, a concentration that is nontoxic to cells. After incubation for 24 or 48 h, MTT reagent (5 mg/mL) was added to each well and the samples were incubated for 3 h at 37°C in the dark. The absorbance of formazan crystals dissolved in 150 µL of DMSO was measured at 570 nm using a microplate reader to identify the cytotoxic effect of the analogues.

[2] = test system: breast cancer cells MCF-7; assay: MTT antiproliferative assay, MCF-7; type: cell-based; conditions: Homo sapiens
Procedure: as §1, §2

liver cancer cells HepG2 = assay: MTT antiproliferative assay, HepG2; type: cell-based; conditions: Homo sapiens
Procedure: as §1, §2

[3] = test system: human cancer cell lines A549, HepG2, MCF-7, Caco-2, and HeLa; assay: MTT assay, panel of human cancer cell lines (statements in words); type: cell-based; conditions: five cancer cell lines, after 24 h of treatment, compared to CU
Procedure: as §1, §2

[4] = test system: colon cancer cells Caco-2; assay: MTT antiproliferative assay, Caco-2; type: cell-based, human; conditions: for IC50: Homo sapiens, read-out: IC50 Caco2; for SI Caco2: logarithm of ratio IC50 LO2 / IC50 cancer cells
Procedure: as §1, §2

[5] = test system: cervical cancer cells HeLa; assay: MTT antiproliferative assay, HeLa; type: cell-based; conditions: Homo sapiens
Procedure: as §1, §2

lung cancer cells A549 = assay: MTT antiproliferative assay, A549; type: cell-based; conditions: Homo sapiens
Procedure: as §1, §2

[6] = Solubility in water by HPLC; type: physicochemical; conditions: 25°C, mass of solute dissolved at saturation in 100 g of solvent
Procedure: The solubility of the synthesized compounds in water was determined using high performance liquid chromatography (HPLC). First, 1.000 g of each compound was accurately weighed, placed in 100 g of water, and stirred at 25°C for a period of time. Then, the reaction system was allowed to stand for 1 h. The supernatant was quantitatively taken, diluted with methanol to volume, and centrifuged, and the solubility was determined using HPLC.

Caco-2 xenograft tumors = assay: In vivo anticancer activity, Caco-2 xenograft; conditions: Caco-2 xenograft; CA8 100 mg/kg, CU 100 mg/kg, tegafur 50 mg/kg, gavage every other day
Procedure: Twenty 5-week-old male BALB nude mice purchased from SPF (Beijing) Biotechnology Co., Ltd. were used for the in vivo pharmacodynamic experiment of CA8. Caco-2 cells (6 × 10^6 cells in 100 μL PBS) were harvested and subcutaneously injected into the right hip of the mice. Then, they were divided into four groups when the tumor volume reached 100 mm^3 and treated with saline, CU (100 mg/kg), tegafur (50 mg/kg), or CA8 (100 mg/kg) via gavage every other day. Tumor size and body weight were measured and recorded every other day. At the end of the experiment, the mice were sacrificed and tumors were harvested and weighed. Tumor volumes were calculated by measuring length (L) and width (W) according to the following formula: V = 0.5 × L × W^2. The tumor tissue was embedded in paraffin, cut into slices, stained with HE, and observed under a light microscope.

| SMILES | IC50 ([2]; MCF7, 24 h) | IC50 ([2]; MCF7, 48 h) | IC50 (liver cancer cells HepG2; HepG2, 24 h) | IC50 (liver cancer cells HepG2; HepG2, 48 h) | IC50 ([4]; Caco-2, 24 h) | IC50 ([4]; Caco-2, 48 h) | IC50 ([5]; 24 h) | IC50 ([5]; 48 h) | IC50 (lung cancer cells A549; A549, 24 h) | IC50 (lung cancer cells A549; A549, 48 h) | Solubility [6] | IC50 ([1]; 24 h) | IC50 ([1]; 48 h) | cytotoxicity [3] | SI Caco2 ([4]; 24 h) | SI Caco2 ([4]; 48 h) | inhibitory effect on tumor growth (Caco-2 xenograft tumors) |
| --- | --- | --- | --- | --- | --- | --- | --- | --- | --- | --- | --- | --- | --- | --- | --- | --- | --- |
| COc1ccc(/C=C2\CN(C(C)C)C/C(=C\c3ccc(OC)nc3)C2=O)cn1 [CA5] | 30.1 ± 3.36 µM | 4.94 ± 1.42 µM | > 60 µM | 2.18 ± 0.4 µM | 14.7 ± 0.73 µM | 4.87 ± 0.19 µM | 2.35 ± 0.09 µM | 1.81 ± 0.36 µM | 28 ± 0.77 µM | 34.7 ± 1.89 µM | 0.22 mg/100g | 9.8 ± 0.51 µM | 6.9 ± 0.46 µM | – | −0.17 | 0.15 | – |
| COc1ccc(/C=C2\CN(C)C/C(=C\c3ccc(OC)nc3)C2=O)cn1 [CA4] | 17 ± 1.6 µM | 7.8 ± 0.7 µM | 2.63 ± 0.38 µM | 1.95 ± 0.2 µM | 7.7 ± 1.8 µM | 9.4 ± 1 µM | 4.6 ± 0.5 µM | 2.7 ± 0.5 µM | 22.9 ± 2.7 µM | 12.5 ± 0.2 µM | 2.63 mg/100g | 6.11 ± 0.33 µM | 2.5 ± 0.13 µM | – | −0.10 | −0.59 | – |
| O=c1[nH]c(=O)n(C2CCCO2)cc1F (stereo not shown) [tegafur, reference compound] | – | – | – | – | – | – | – | – | – | – | – | – | – | – | – | – | CA8 > tegafur > CU |
| COc1ccc(/C=C2\CCC/C(=C\c3ccc(OC)nc3)C2=O)cn1 [CA3] | > 60 µM | > 60 µM | 30.6 ± 5.99 µM | 15.5 ± 0.42 µM | > 60 µM | 47.4 ± 0.91 µM | 29.6 ± 2.57 µM | 38.3 ± 1.11 µM | > 60 µM | > 60 µM | – | > 60 µM | > 60 µM | low toxicity | – | > 0.1 | – |
| COc1ccc(/C=C/C(=O)CC(=O)/C=C/c2ccc(OC)nc2)cn1 [CA1] | > 60 µM | 47.3 ± 2.1 µM | > 60 µM | 46.9 ± 2.6 µM | > 60 µM | > 60 µM | > 60 µM | 56.5 ± 3.7 µM | > 60 µM | 28.6 ± 2.2 µM | 0.07 mg/100g | > 60 µM | 57.6 ± 4.83 µM | low toxicity | – | – | – |
| COc1ccc(/C=C/C(=O)/C=C/c2ccc(OC)nc2)cn1 [CA2] | 21.3 ± 3.1 µM | 16.8 ± 0.6 µM | 25.2 ± 1 µM | 19.8 ± 0.4 µM | 15.8 ± 0.3 µM | 10.4 ± 0.7 µM | 18.1 ± 0.8 µM | 18.1 ± 0.8 µM | 25.9 ± 1.3 µM | 16.1 ± 0.8 µM | 0.42 mg/100g | 31 ± 0.41 µM | 17.5 ± 1.09 µM | – | 0.29 | 0.23 | – |

More lines, main results first:

| IC50 ([2]; MCF7, 24 h) | IC50 ([2]; MCF7, 48 h) | IC50 (liver cancer cells HepG2; HepG2, 24 h) | IC50 (liver cancer cells HepG2; HepG2, 48 h) | IC50 ([4]; Caco-2, 24 h) | IC50 ([4]; Caco-2, 48 h) | IC50 ([5]; 24 h) | IC50 ([5]; 48 h) | IC50 (lung cancer cells A549; A549, 24 h) | IC50 (lung cancer cells A549; A549, 48 h) | Solubility [6] | SMILES | IC50 ([1]; 24 h) | IC50 ([1]; 48 h) | cytotoxicity [3] | SI Caco2 ([4]; 24 h) | SI Caco2 ([4]; 48 h) | inhibitory effect on tumor growth (Caco-2 xenograft tumors) |
| --- | --- | --- | --- | --- | --- | --- | --- | --- | --- | --- | --- | --- | --- | --- | --- | --- | --- |
| > 60 µM | > 60 µM | 50.4 ± 15.1 µM | 9.28 ± 0.68 µM | > 60 µM | > 60 µM | > 60 µM | > 60 µM | > 60 µM | > 60 µM | 15.04 mg/100g | Cc1cc(/C=C2\CNC/C(=C\c3cc(C)c(O)c(C)c3)C2=O)cc(C)c1O [CA6] | > 60 µM | > 60 µM | low toxicity | – | – | – |
| 22.2 ± 1.8 µM | 10.9 ± 1.3 µM | 11.2 ± 0.5 µM | 10.7 ± 1.6 µM | 3 ± 0.6 µM | 2.09 ± 0.32 µM | 8.4 ± 0.2 µM | 4.3 ± 0.1 µM | 21.4 ± 2.7 µM | 11.7 ± 0.5 µM | 1.37 mg/100g | COc1cc(/C=C2\CN(C)C/C(=C\c3ccc(OC4CCCCO4)c(OC)c3)C2=O)ccc1OC1CCCCO1 (stereo not shown) [CA9] | 15 ± 0.95 µM | 5 ± 0.09 µM | – | 0.70 | 0.38 | – |
| 54.2 ± 17.3 µM | 18.2 ± 0.52 µM | 22.7 ± 1.37 µM | 2.71 ± 0.49 µM | 44.4 ± 7.38 µM | 7.44 ± 0.49 µM | 5.26 ± 0.49 µM | 1.26 ± 0.18 µM | 36.1 ± 4.76 µM | 43.8 ± 5.13 µM | 3.29 mg/100g | Cc1cc(/C=C2\CN(C(C)C)C/C(=C\c3cc(C)c(O)c(C)c3)C2=O)cc(C)c1O [CA7] | 39.2 ± 1.67 µM | 8.4 ± 0.41 µM | – | −0.05 | 0.05 | – |
